Reference: the supplement of paper PMC10307832

What was measured:
Assay in all cases: relative viability (nuclei count vs DMSO), 5 days (fraction); higher = more cells survive
NCI-H1395 = tested on: NCI-H1395
Summary of the method: (§1)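 Medians of duplicate plates are given as relative viability. That measure is the nuclei count in treated wells divided by the count in vehicle wells. Counts were taken on 4× images of lung cancer cell lines in 1536-well plates, 5 days after pin-tool dosing the day after seeding with one drug alone or a fixed anchor-drug dose plus five library-drug doses (not always all listed) in √10 steps.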

COR-L 105 = tested on: COR-L 105
Summary of the method: as §1

NCI-H2087 = tested on: NCI-H2087
Summary of the method: as §1

SW 1573 = tested on: SW 1573
Summary of the method: as §1

NCI-H1666 = tested on: NCI-H1666
Summary of the method: as §1

NCI-H1437 = tested on: NCI-H1437
Summary of the method: as §1

EKVX = tested on: EKVX
Summary of the method: as §1

HOP-62 = tested on: HOP-62
Summary of the method: as §1

LU99A = tested on: LU99A
Summary of the method: as §1

PC-3 [JPC-3] = tested on: PC-3 [JPC-3]
Summary of the method: as §1

NCI-H358 = tested on: NCI-H358
Summary of the method: as §1

LCLC-97TM1 = tested on: LCLC-97TM1
Summary of the method: as §1

HCC-827 = tested on: HCC-827
Summary of the method: as §1

201T = tested on: 201T
Summary of the method: as §1

NCI-H2342 = tested on: NCI-H2342
Summary of the method: as §1

BEN = tested on: BEN
Summary of the method: as §1

H3255 = tested on: H3255
Summary of the method: as §1

HCC-44 = tested on: HCC-44
Summary of the method: as §1

NCI-H2085 = tested on: NCI-H2085
Summary of the method: as §1

EPLC-272H = tested on: EPLC-272H
Summary of the method: as §1

NCI-H1975 = tested on: NCI-H1975
Summary of the method: as §1

LOU-NH91 = tested on: LOU-NH91
Summary of the method: as §1

NCI-H647 = tested on: NCI-H647
Summary of the method: as §1

C=C1C(=O)O[C@@H](CCCCCCCC)[C@@H]1C(=O)O [C-75] + COc1cccc2cc(-c3nc([C@H]4CC[C@H](C(=O)O)CC4)n4ncnc(N)c34)[nH]c12 [OSI-027] (partner 0.5 µM)
relative viability (NCI-H1395; first compound 0.08 µM): 0.669 | relative viability (NCI-H1395; first compound 0.253 µM): 0.624 | relative viability (NCI-H1395; first compound 0.8 µM): 0.556 | relative viability (NCI-H1395; first compound 2.53 µM): 0.667 | relative viability (NCI-H1395; first compound 8 µM): 0.649 | relative viability (COR-L 105; first compound 0.08 µM): 0.709 | relative viability (COR-L 105; first compound 0.253 µM): 0.757 | relative viability (COR-L 105; first compound 0.8 µM): 0.648 | relative viability (COR-L 105; first compound 2.53 µM): 0.515 | relative viability (COR-L 105; first compound 8 µM): 0.696 | relative viability (NCI-H2087; first compound 0.08 µM): 0.609 | relative viability (NCI-H2087; first compound 0.253 µM): 0.807 | relative viability (NCI-H2087; first compound 0.8 µM): 0.54 | relative viability (NCI-H2087; first compound 2.53 µM): 0.377 | relative viability (NCI-H2087; first compound 8 µM): 0.528 | relative viability (SW 1573; first compound 0.08 µM): 0.705 | relative viability (SW 1573; first compound 0.253 µM): 0.709 | relative viability (SW 1573; first compound 0.8 µM): 0.555 | relative viability (SW 1573; first compound 2.53 µM): 0.634 | relative viability (SW 1573; first compound 8 µM): 0.519 | relative viability (NCI-H1666; first compound 0.08 µM): 0.798 | relative viability (NCI-H1666; first compound 0.253 µM): 0.97 | relative viability (NCI-H1666; first compound 0.8 µM): 0.885 | relative viability (NCI-H1666; first compound 2.53 µM): 0.726 | relative viability (NCI-H1666; first compound 8 µM): 0.786 | relative viability (NCI-H1437; first compound 0.08 µM): 0.842 | relative viability (NCI-H1437; first compound 0.253 µM): 0.871 | relative viability (NCI-H1437; first compound 0.8 µM): 0.867 | relative viability (NCI-H1437; first compound 2.53 µM): 0.57 | relative viability (NCI-H1437; first compound 8 µM): 0.914 | relative viability (EKVX; first compound 0.08 µM): 0.699 | relative viability (EKVX; first compound 0.253 µM): 0.979 | relative viability (EKVX; first compound 0.8 µM): 0.651 | relative viability (EKVX; first compound 8 µM): 0.68 | relative viability (HOP-62; first compound 0.08 µM): 0.816 | relative viability (HOP-62; first compound 0.253 µM): 0.825 | relative viability (HOP-62; first compound 0.8 µM): 0.865 | relative viability (HOP-62; first compound 2.53 µM): 0.738 | relative viability (HOP-62; first compound 8 µM): 0.705 | relative viability (LU99A; first compound 0.08 µM): 0.328 | relative viability (LU99A; first compound 0.253 µM): 0.28 | relative viability (LU99A; first compound 0.8 µM): 0.273 | relative viability (LU99A; first compound 2.53 µM): 0.252 | relative viability (LU99A; first compound 8 µM): 0.325 | relative viability (PC-3 [JPC-3]; first compound 0.08 µM): 0.772 | relative viability (PC-3 [JPC-3]; first compound 0.253 µM): 0.806 | relative viability (PC-3 [JPC-3]; first compound 0.8 µM): 0.736 | relative viability (PC-3 [JPC-3]; first compound 2.53 µM): 0.668 | relative viability (PC-3 [JPC-3]; first compound 8 µM): 0.749 | relative viability (NCI-H358; first compound 0.08 µM): 0.714 | relative viability (NCI-H358; first compound 0.253 µM): 0.871 | relative viability (NCI-H358; first compound 0.8 µM): 0.691 | relative viability (NCI-H358; first compound 2.53 µM): 0.383 | relative viability (NCI-H358; first compound 8 µM): 0.624 | relative viability (LCLC-97TM1; first compound 0.08 µM): 0.554 | relative viability (LCLC-97TM1; first compound 0.253 µM): 0.636 | relative viability (LCLC-97TM1; first compound 0.8 µM): 0.543 | relative viability (LCLC-97TM1; first compound 2.53 µM): 0.192 | relative viability (LCLC-97TM1; first compound 8 µM): 0.479 | relative viability (HCC-827; first compound 0.08 µM): 0.757 | relative viability (HCC-827; first compound 0.253 µM): 0.826 | relative viability (HCC-827; first compound 0.8 µM): 0.751 | relative viability (HCC-827; first compound 2.53 µM): 0.597 | relative viability (HCC-827; first compound 8 µM): 0.758 | relative viability (201T; first compound 0.08 µM): 0.734 | relative viability (201T; first compound 0.253 µM): 0.866 | relative viability (201T; first compound 0.8 µM): 0.698 | relative viability (201T; first compound 8 µM): 0.734 | relative viability (NCI-H2342; first compound 0.08 µM): 0.582 | relative viability (NCI-H2342; first compound 0.253 µM): 0.656 | relative viability (NCI-H2342; first compound 0.8 µM): 0.582 | relative viability (NCI-H2342; first compound 2.53 µM): 0.628 | relative viability (NCI-H2342; first compound 8 µM): 0.591 | relative viability (BEN; first compound 0.08 µM): 0.347 | relative viability (BEN; first compound 0.253 µM): 0.293 | relative viability (BEN; first compound 0.8 µM): 0.32 | relative viability (BEN; first compound 8 µM): 0.288 | relative viability (H3255; first compound 0.08 µM): 0.589 | relative viability (H3255; first compound 0.253 µM): 0.7 | relative viability (H3255; first compound 0.8 µM): 0.481 | relative viability (H3255; first compound 2.53 µM): 0.562 | relative viability (H3255; first compound 8 µM): 0.633 | relative viability (HCC-44; first compound 0.08 µM): 0.675 | relative viability (HCC-44; first compound 0.253 µM): 0.428 | relative viability (HCC-44; first compound 0.8 µM): 0.463 | relative viability (HCC-44; first compound 2.53 µM): 0.353 | relative viability (HCC-44; first compound 8 µM): 0.404 | relative viability (NCI-H2085; first compound 0.08 µM): 0.882 | relative viability (NCI-H2085; first compound 0.253 µM): 0.883 | relative viability (NCI-H2085; first compound 0.8 µM): 0.689 | relative viability (NCI-H2085; first compound 2.53 µM): 0.757 | relative viability (NCI-H2085; first compound 8 µM): 0.73 | relative viability (EPLC-272H; first compound 0.08 µM): 0.271 | relative viability (EPLC-272H; first compound 0.253 µM): 0.302 | relative viability (EPLC-272H; first compound 0.8 µM): 0.278 | relative viability (EPLC-272H; first compound 2.53 µM): 0.227 | relative viability (EPLC-272H; first compound 8 µM): 0.235 | relative viability (NCI-H1975; first compound 0.08 µM): 0.842 | relative viability (NCI-H1975; first compound 0.253 µM): 0.672 | relative viability (NCI-H1975; first compound 0.8 µM): 0.679 | relative viability (NCI-H1975; first compound 2.53 µM): 0.436 | relative viability (NCI-H1975; first compound 8 µM): 0.717 | relative viability (LOU-NH91; first compound 0.08 µM): 0.725 | relative viability (LOU-NH91; first compound 0.253 µM): 0.622 | relative viability (LOU-NH91; first compound 0.8 µM): 0.68 | relative viability (LOU-NH91; first compound 2.53 µM): 0.656 | relative viability (LOU-NH91; first compound 8 µM): 0.781 | relative viability (NCI-H647; first compound 0.08 µM): 0.697 | relative viability (NCI-H647; first compound 0.253 µM): 0.603 | relative viability (NCI-H647; first compound 0.8 µM): 0.522 | relative viability (NCI-H647; first compound 2.53 µM): 0.474 | relative viability (NCI-H647; first compound 8 µM): 0.574
